In patent publication US20220096484A1, “METHODS AND COMPOSITIONS FOR TREATING CANCER BY TARGETING FATP2 AND MYELOID DERIVED SUPPRESSOR CELLS” (The Wistar Institute of Anatomy and Biology, priority 2019, published 2022):

How the values were obtained:
[1] = test system: LLC tumors in NOD-SCID mice; assay: Growth of LLC tumors in NOD-SCID mice treated with lipofermata; type: in vivo, mouse; settings: lipofermata 2 mg/kg twice per day s.c.
Description: (§1) FIG. 4A-FIG. 4E, Treatments with lipofermata (2 mg kg^−1 twice per day subcutaneously) started 8-10 days after tumor injection. Anti-CTLA4 antibody (200 μg per mouse, intraperitoneally) was administrated at days 7 and 11 after tumor injection, and anti-CSF1R antibody ([…] per mouse, intraperitoneally) was administered every other day, starting the day after tumor injection. FIG. 4A, Growth of indicated tumors in C57BL/6 mice treated with lipofermata. Representative of two independent experiments (n=4-5 mice per group). FIG. 4B, Growth of LLC tumors in NOD-SCID mice treated with lipofermata (n=5). FIG. 4C, Growth of LLC tumors in mice depleted of CD8 T cells and treated with lipofermata (n=5). FIG. 4D, Growth of LLC tumors in mice treated with anti-CTLA4 antibody and lipofermata (n=5). FIG. 4E, Growth of LLC tumors in mice treated with CSF1R inhibitor and lipofermata (n=5). Data are mean±se.m. *P<0.05, **P<0.01, ***P<0.001, ****P<0.0001 (differences from untreated […] and between treated groups), two-way ANOVA with corrections for multiple comparison. NS, not significant.
5×10^5 tumor cells were injected s.c. into mice, which formed tumors with a 1.5-cm diameter within 2-3 weeks of injection. Lipofermata was administrated s.c. at dose of 2 mg/kg twice per day. As a control, mice were treated with vehicle alone (DMSO+30% v/v Kolliphor). […]

[2] = test system: EL-4 tumor cells; assay: MTT assay after three-day incubation of tumor cells with lipofermata; type: cell-based; settings: EL-4 cells, range of concentrations corresponding to the dose used in vivo (0.2 mg/ml)
Description: (§2) FIGS. 13A-FIG. 13E show the effect of lipofermata treatment on tumor-bearing mice. FIG. 13A, MTT assay after three-day incubation of tumor cells with indicated concentration of lipofermata. FIG. 13B, Percentage and absolute number of tumor-associated antigen (E7-derived peptide)-specific CD8^+ T cells in draining lymph nodes of mice bearing TC-1 tumor and treated with lipofermata (n=3). FIG. 13C, Growth of TC-1 tumors in mice treated with CTLA4 antibody and lipofermata (n=5). FIG. 13D, CD8^+ T cell infiltration of TC-1 tumors in mice treated with CTLA4 antibody and lipofermata. FIG. 13E, Growth of TC-1 tumors in mice treated with PD1 antibody and lipofermata (n=5). Data are mean±s.d. *P<0.05, **P<0.01, ***P<0.001, ****P<0.0001, two-sided Student's t-test (FIG. 13B) or two-way ANOVA test with correction for repeated measurements (FIG. 13E).
(§3) Tumor cell lines: EL4 (lymphoma), LLC (Lewis Lung Carcinoma), CT26 (colon carcinoma), TC-1 (HPV16 E6/E7 expressing tumor cell line) were obtained from ATCC and F244 (sarcoma) was kindly provided by Dr. R. Schreiber (Washington University, St. Lois, Mo.). All cells were maintained in DMEM medium supplemented with 10% fetal bovine serum (FBS, Sigma-Aldrich, St. Louis, Mo.) at 37° C., 5% CO2. Tumor cells were injected subcutaneously (s.c.) at 5×10^5 cells per mouse. […]

[3] = test system: LLC tumor cells; assay: as above; type: cell-based; settings: range of concentrations corresponding to the dose used in vivo (0.2 mg/ml)
Description: as §2, §3

[4] = test system: tumor-associated antigen (E7-derived peptide)-specific CD8+ T cells; assay: Antigen specific CD8 T cells in draining lymph nodes of TC-1 tumor-bearing mice (MHC tetramer flow cytometry); type: in vivo, mouse; settings: TC-1 model; lipofermata treatment
Description: as §2, with “Data are mean±s.d. *P<0.05, **P<0.01, ***P<0.001, ****P<0.0001, two-sided Student's t-test (FIG. 13B) or two-way ANOVA test with correction for repeated measurements (FIG. 13E).” left out
Lymph nodes (LNs) were obtained from TB mice and digested for 30 min at 37° C. with collagenase A (0.5 mg/ml; Sigma Aldrich), Dnase I (0.2 mg/ml, Roche), diluted in HBSS with Ca^2+/Mg^2+ and 20 mM EDTA (Invitrogen) was added 5 min at room temperature to stop the reaction. CD8^+ T cells were isolated from LNs of TB mice using EasySep Mouse CD8+ T Cell Enrichment Kit (STEMCELL) and stimulated with anti CD3 and anti CD28 antibodies (BD Biosciences) for 24 h and IFNγ was analyzed by ELISpot (Mabtech), accordingly to manufacturer's instructions. T cell proliferation was evaluated by flow cytometry using CSFE (BioLegend). […]

[5] = test system: tumors in C57BL/6 mice; assay: Growth of tumors in C57BL/6 mice treated with lipofermata (four tumor models); type: in vivo, mouse; settings: four tested tumor models, lipofermata 2 mg/kg twice per day s.c., started 8-10 days after tumor injection
Description: as §1, with “significant. […]” for “significant.”
(§4) Statistical analysis was performed using unpaired two-tailed Student's t-test with significance determined at 0.05. […] Tumor growth was evaluated using two-way Anova test with Bonferroni correction for multiple comparisons.

[6] = test system: LLC tumors; assay: Growth of LLC tumors in mice (lipofermata alone, CD8 T cell depletion, combination with antibodies); type: in vivo, mouse
Description: as §1
5×10^5 tumor cells were injected s.c. into mice, which formed tumors with a 1.5-cm diameter within 2-3 weeks of injection. Lipofermata was administrated s.c. at dose of 2 mg/kg twice per day. As a control, mice were treated with vehicle alone (DMSO+30% v/v Kolliphor). Treatments with lipofermata started 8-10 days after tumors injections. CSF1R antibody (BioXcell, 300 μg/mouse) was administered every other day starting next day after tumor injection and continued until the mice were sacrificed. PD-1 antibody (clone RMP1-14, BioXcell, 200 μg/mouse) was administered twice a week started 10-12 days after tumor injection. CTLA4-IgG2a (BioXcell, 200 μg/mouse) was administered at day 7 and day 11.
as §4

## O=C1Nc2ccc(Br)cc2C12NN=C(c1ccccc1)S2 (stereo not drawn) [lipofermata, 5′-bromo-5-phenyl-spiro[3H-1,3,4-thiadiazole-2,3′-indoline]-2′-one]
[1]
  tumor growth delay effect in immune deficient mice: this effect was absent
[2]
  proliferation of tumor cells in vitro (MTT): did not affect proliferation
[3]
  proliferation of tumor cells in vitro (MTT): did not affect proliferation
[4]
  absolute numbers of antigen specific T cells in draining lymph nodes: increased
  percentage of antigen specific T cells in draining lymph nodes: increased
[5]
  tumor growth: significant delay of tumor growth
[6]; LLC bearing mice, lipofermata 2 mg/kg twice per day s.c., anti-CTLA4 200 μg/mouse days 7 and 11, CSF1R antibody 300 μg/mouse every other day
  antitumor effect (LLC tumor growth): had an antitumor effect
[6]; LLC bearing mice, single agents
  blocking of tumor progression: neither blocked tumor progression
[6]; LLC tumors, immune competent mice depleted of CD8 T cells, lipofermata 2 mg/kg twice per day s.c.
  tumor growth effect after depletion of CD8+ T cells: abrogated the effect of lipofermata
